≈ marks a conversion by molar mass, not a printed value. Like-named read-outs stand apart in the source and are kept apart here.
Experiments:
[1] = tested on: advanced solid tumors; conditions: Phase I, patients with advanced solid tumors; cited from earlier work
[2] = cited from earlier work
[3] = pH-dependent dissolution profile (equilibrium solubility) of ART-001 in buffers pH 1 to 10, HPLC; type: physicochemical; conditions: for solubility: aqueous buffer, thermodynamic from solid, room temperature
Experimental: The dissolution profile of ART-001 in various pH environments was tested by the following procedure. Excess amounts of ART-001 were added to 50 mM phosphate buffer (pH 1, 2, 7, and 8), citrate buffer (pH 3, 4, 5, and 6), boric acid buffer (pH 9), and bicarbonate buffer (pH 10), with the pH adjusted variously in the range of from pH 1 to pH 10 with a 6N HCl or 10N sodium hydroxide solution, and stirred at room temperature. When the dissolved state reached equilibrium, a fixed amount of each sample was taken. After centrifugation at 1000 rpm for 10 minutes, the supernatant was collected and measured by HPLC. The pH at the beginning and end of dissolution were also measured and recorded.

[4] = healthy adults, cited from earlier work
[5] = cited from earlier work; remark: listed apart in the source
[6] = cited from earlier work; remark: listed apart in the source

In the case of `Nc1nc2cc(-c3ccc4ncc(C(=O)N5CCOCC5)n4c3)ccc2o1` [ART-001, Serabelisib], the therapeutic efficacy [1] is listed as “limited therapeutic efficacy”, the variability in pharmacokinetics [1] is listed as “high degree of variability” and the “solubility in acidic solutions” value ([2]; acidic solutions) is listed as “high solubility”. The “solubility in neutral to basic solutions” value ([2]; neutral to basic solutions) was “extremely low solubility”, the solubility ([3]; bicarbonate buffer, start pH 10.00, end pH 10.07, read-out: Solubility) was 2.18 µg/mL (≈ 6 µM) and the solubility ([3]; boric acid buffer, start pH 9.00, end pH 9.16, read-out: Solubility) was 1.3 µg/mL (≈ 3.58 µM). It also gave a solubility ([3]; citrate buffer, start pH 3.17, end pH 3.33, read-out: Solubility) of 36.8 µg/mL (≈ 101 µM), a solubility ([3]; citrate buffer, start pH 4.00, end pH 4.19, read-out: Solubility) of 5.7 µg/mL (≈ 15.7 µM) and a solubility ([3]; citrate buffer, start pH 5.03, end pH 5.2, read-out: Solubility) of 1.7 µg/mL (≈ 4.68 µM). The solubility ([3]; citrate buffer, start pH 5.95, end pH 6.11, read-out: Solubility) was 1.3 µg/mL (≈ 3.58 µM), the solubility ([3]; citrate, phosphate, boric acid and bicarbonate buffers, pH 6 or higher, read-out: solubility under high pH conditions) was 1.3 µg/mL (≈ 3.58 µM) and the “solubility under high pH conditions when the solubility under low pH conditions is considered to be 100%” value ([3]; pH 6 or higher vs pH 2.5 or lower) was “about 4%”. It also gave a solubility ([3]; phosphate buffer, pH 2.5 or lower, read-out: solubility under low pH conditions) of 312 to 10000 µg/mL (≈ 859 to 27500 µM), a solubility ([3]; phosphate buffer, start pH 1.04, end pH 1.33, read-out: Solubility) of 1140 µg/mL (≈ 3130 µM) and a solubility ([3]; phosphate buffer, start pH 2.09, end pH 2.56, read-out: Solubility) of 312 µg/mL (≈ 859 µM). For the same compound, the solubility ([3]; phosphate buffer, start pH 6.81, end pH 6.97, read-out: Solubility) was 1.2 µg/mL (≈ 3.3 µM), the solubility ([3]; phosphate buffer, start pH 8.15, end pH 8.3, read-out: Solubility) was 1.3 µg/mL (≈ 3.58 µM) and the “absorption of ART-001” value ([4]; co-administration of proton pump inhibitor (lansoprazole), stomach pH neutral) was “markedly decreased”. For the same compound, the pharmacokinetic variability [4] was “significant pharmacokinetic variability”.
In the case of `Cc1nc(NC(=O)N2CCC[C@H]2C(N)=O)sc1-c1ccnc(C(C)(C)C(F)(F)F)c1` [alperisib, Alpelisib], the “pharmacokinetics in clinical studies” value [5] is given as “variations in pharmacokinetics” and the solubility [6] is given as “pH-dependent solubility”.
